Assay results reported in US12150777B2, “Treatment of depression” (The Board of Trustees of the Leland Stanford Junior …, priority 2018, dated 2024).
Read-outs that look alike come from different tables or passages of the source.

What was measured:
[1] = EMBARC randomized trial, sertraline versus placebo, HAMD17 outcome; format: in vivo, human; settings: all patients
From the text: Assessments and treatment protocol: The primary clinical outcome was total scores on the Hamilton Rating Scale for Depression 17-item (HAMD17)^24,25, administered at each study visit (baseline, week 1, week 2, week 3, week 4, week 6, and week 8).
Key eligibility for the study included being 18-65 years old, having major depression as a primary diagnosis by the Structured Clinical Interview for DSM-IV Axis I Disorders^1, at least moderate depression severity with a score≥14 on the Quick Inventory of Depressive Symptomatology-Self Report (QIDS-SR) at screening and randomization, a major depressive episode beginning before age 30, either a chronic recurrent episode (duration≥2 years) or recurrent MDD (at least 2 lifetime episodes), and no antidepressant failure during the current episode. […] In addition, 40 healthy individuals who were medically and psychiatrically healthy, were recruited across the four sites, and assessed in a similar manner as the patients. […]

[2] = for endpoint symptom difference Cohen's d / remission NNT: below median iI-cI activation
From the text: fMRI task and acquisition parameters: The emotional conflict task is a well-characterized paradigm^17,18, that induces emotional conflict through pairing fearful and happy faces with overlaid congruent or incongruent emotion words (participants identify facial expression using a keypad).
fMRI preprocessing and first-level modeling: For the emotional conflict task, the contrasts of interest were incongruent versus congruent trials (conflict) and post-incongruent incongruent trials versus post-congruent incongruent trials (an established measure of conflict regulation)^11,13,17,18.
Statistical analyses: All moderation analyses were conducted under an intention-to-treat framework, incorporating all randomized patients after removing those with excessive head motion or low task accuracy. As such, we employed linear mixed models both for the voxelwise neuroimaging data, as well as follow-up analyses on extracted brain signals, while fully controlling for any potential differences due to site of acquisition. Whole-brain voxelwise correction for multiple comparisons was performed at p<0.05 based on the false discovery rate.
Emotional conflict task: This well-characterized paradigm assesses both emotional conflict and emotional conflict regulation^3,4. Each trial involved presentation of an emotional face with either a fearful or happy expression, drawn from the set of Ekman & Friesen^5, with an overlaid emotion word (“FEAR” or “HAPPY”). Participants were instructed to identify the facial emotion with a key press, while trying to ignore the emotion word. The task consisted of 148 trials, with stimuli presented for 1000 milliseconds (ms) in a fast event-related design. Interstimulus intervals were 3000-5000 ms in a pseudo-randomized order counterbalanced for facial expression, gender, word, and response button. Stimuli were either congruent (e.g. fearful face with “FEAR”) or incongruent (e.g. fearful face with “HAPPY”), and stimuli were furthermore balanced to achieve an equal fraction of current and prior trial congruency, while ensuring no direct stimulus repetitions. Prior to performance of the task during neuroimaging, all participants underwent a practice version to ensure task proficiency was reached (minimum 80% accuracy) and the task instructions were understood. The neuroimaging task lasted 13 minutes and 14 seconds.
We constrained analyses to a search space defined by a whole-brain mask constructed from: a) a 30% probabilistic voxelwise threshold derived from spatially normalized, segmented binary gray matter images from an independent sample of healthy comparison participants^9,10; and b) a conjunction map of adequate signal coverage across study scanners constructed by concatenating the binarized individual-level average map of all task experimental conditions within participants acquired at each scanner, thresholding at a minimum of 50% coverage within each scanner sample, and then conjoining these maps across all scanners. Thus, the final search space was a function of both adequate signal coverage across all study scanners as well as a probabilistic assignment to the brain's gray matter. At each voxel within this search space, the moderating effect of baseline brain activation (mean-centered) was examined using a longitudinal linear mixed model implemented in the nlme R package.^14 Modeled effects included a random and fixed intercept, fixed effects of time, time×treatment arm, 4 mean-centered, dummy-coded scanner variables corresponding to: a) Columbia University scanner 1 vs. UT Southwestern scanner; b) Columbia University scanner 2 vs. UT Southwestern scanner; c) Massachusetts General Hospital scanner vs. UT Southwestern scanner; and d) University of Michigan scanner vs. UT Southwestern scanner, treatment arm×time×brain activation, and all model variables in interaction with each of the 4 site variables.

[3] = Moderation of outcome by left amygdala PPI task-related connectivity; format: in vivo, human
Procedure: Context-dependent connectivity analyses were conducted using the generalized PPI toolbox^1. A “seed” region was defined volumetrically using an anatomical region of interest mask of the left and right amygdala. Each amygdala mask was then deformed from Montereal Neurological Institute standard space into the participant's native anatomical space using the inverse warp parameter determined during spatial normalization of the preprocessing stage. […] The interaction of the time series of behavioral parameters of interest, i.e. the task conditions utilized in the first-level activation analysis, with the deconcolved “neuronal” time series were calculated for each task condition of interest, thus producing a fully specified statistical model modeling the interaction of each task condition with the observed BOLD time series (a psychophysiological interaction). […] The first-level beta weights for the contrasts of conditions of interest were then calculated on the individual level, and individual-level generalized PPI beta maps were then carried to a second level linear mixed model analysis conducted in R using the fmri^2 and nlme^3 packages to assess voxelwise task-dependent connectivity moderation effects (as in the activation analyses).

Structure (SMILES): CN[C@H]1CC[C@@H](c2ccc(Cl)c(Cl)c2)c2ccccc21 [sertraline]
- endpoint symptom reduction with sertraline versus placebo, Cohen's d ([1]; HAMD17, linear mixed model, 8 weeks): 0.24
- remission number needed to treat (NNT) ([1]; sertraline versus placebo): 20.1
- endpoint symptom difference Cohen's d ([2]; anterior insula): 0.53
- remission NNT ([2]; anterior insula): 6.3
- endpoint symptom difference Cohen's d ([2]; dorsal anterior cingulate): 0.79
- remission NNT ([2]; dorsal anterior cingulate): 3
- endpoint symptom difference Cohen's d ([2]; frontopolar cortex): 0.85
- remission NNT ([2]; frontopolar cortex): 2.9
- benefit of sertraline over placebo ([2]; patients in bottom half of emotion-regulation capacity): no benefit
- benefit of sertraline over placebo ([2]; patients in bottom quartile of emotional conflict regulatory ability): no benefit
- number needed to treat ([2]; patients in top half of emotion-regulation capacity): < 5
- number needed to treat versus placebo ([2]; patients in top quartile of emotional conflict regulatory ability): < 4
- symptom change with sertraline versus placebo ([3]; left amygdala PPI connectivity to dorsal anterior cingulate above median): failed to show any difference
- symptom change with sertraline compared to placebo ([3]; left amygdala PPI connectivity to dorsal anterior cingulate below median): steep decline in symptoms
